Experimental data as given in patent US9328093B2, “Selective inhibitors of ubiquitin specific protease 7, the pharmaceutical compositions thereof and their therapeutic applications” (HYBRIGENICS SA, priority 2010, dated 2016).

Assays:
USP5 = target: T1, USP5 (Homo sapiens, UniProt P45974); test: USP5 activity assay (Ub-AMC substrate); type: biochemical; settings: Ub-AMC 300 nM, USP5 300 pM
T1 sequence (P45974 1-858): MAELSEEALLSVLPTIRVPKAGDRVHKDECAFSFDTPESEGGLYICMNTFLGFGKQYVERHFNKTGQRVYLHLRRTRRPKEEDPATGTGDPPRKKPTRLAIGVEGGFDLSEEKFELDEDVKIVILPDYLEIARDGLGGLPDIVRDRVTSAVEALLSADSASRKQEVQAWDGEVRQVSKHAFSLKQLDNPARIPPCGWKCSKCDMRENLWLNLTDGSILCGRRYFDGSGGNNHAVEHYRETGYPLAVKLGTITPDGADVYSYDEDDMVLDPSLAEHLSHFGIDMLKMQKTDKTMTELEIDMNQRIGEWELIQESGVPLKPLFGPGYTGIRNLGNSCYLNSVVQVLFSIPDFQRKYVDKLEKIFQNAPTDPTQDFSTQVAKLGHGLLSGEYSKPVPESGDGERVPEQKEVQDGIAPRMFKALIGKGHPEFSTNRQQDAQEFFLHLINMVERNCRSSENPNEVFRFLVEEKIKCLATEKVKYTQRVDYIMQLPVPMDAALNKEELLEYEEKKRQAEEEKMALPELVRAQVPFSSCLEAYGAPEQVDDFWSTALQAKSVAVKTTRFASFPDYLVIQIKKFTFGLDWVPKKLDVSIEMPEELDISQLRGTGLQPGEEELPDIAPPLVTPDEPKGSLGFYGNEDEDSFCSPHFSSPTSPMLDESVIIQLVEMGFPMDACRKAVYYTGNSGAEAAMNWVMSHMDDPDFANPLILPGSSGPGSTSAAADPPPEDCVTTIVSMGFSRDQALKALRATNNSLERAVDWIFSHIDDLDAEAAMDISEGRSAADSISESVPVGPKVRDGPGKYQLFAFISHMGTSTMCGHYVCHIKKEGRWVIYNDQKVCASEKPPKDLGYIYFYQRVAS
Experimental: USP5 was diluted in USP buffer (50 mM Tris HCl; 0.5 mM EDTA; 5 mM DTT; 0.01% Triton X-100; Bovine Serum Albumin 0.05 mg·ml^−1 pH 7.6). Compounds stocks (100 mM) were stored at −20° C. in DMSO. Compounds were tested at different concentrations: from 200 μM to 91 nM.
Reactions were performed as duplicates in Black 384 well plates (small volume microplates; Greiner; 10 μl final reaction volume). The substrate concentration for USP5 was 300 nM Ub-AMC (Boston Biochem). The concentrations of the enzyme (USP5) in specificity assays was 300 pM. The concentrations were determined in order to perform specificity assays under initial velocities at fixed substrate concentration. Compounds were pre-incubated with enzymes for 30 minutes at 25° C. Reactions were initiated by addition of substrate to the plates containing the enzymes (+/− compounds) diluted in assay buffer. Reactions were incubated for 60 minutes at 37° C. Reactions were stopped by adding acetic acid (100 mM final). Readings were performed on a Pherastar Fluorescent Reader (BMG). λ Emission 380 nm; λ Excitation=460 nm. Data (mean values +/− standard deviation) were analyzed as % of control (no compound) and plotted as percentage versus the Log of the compound concentration using GraphPad (Prism). Data were fitted to a sigmoidal model (variable slope).

UCH-L3 = target: T2, UCH-L3 (Homo sapiens, UniProt P15374); test: UCH-L3 activity assay (Ub-AMC substrate); type: biochemical; settings: Ub-AMC 300 nM, UCH-L3 13 pM
T2 sequence (P15374 1-230): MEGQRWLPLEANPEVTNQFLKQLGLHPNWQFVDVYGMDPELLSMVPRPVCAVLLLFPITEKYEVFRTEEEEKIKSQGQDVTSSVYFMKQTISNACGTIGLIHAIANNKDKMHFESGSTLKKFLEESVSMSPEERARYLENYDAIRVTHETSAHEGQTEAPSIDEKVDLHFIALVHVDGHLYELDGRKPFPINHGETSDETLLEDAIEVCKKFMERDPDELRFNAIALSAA
Experimental: UCH-L3 was diluted in USP buffer (50 mM Tris HCl; 0.5 mM EDTA; 5 mM DTT; 0.01% Triton X-100; Bovine Serum Albumin 0.05 mg·ml^−1 pH7.6). Compounds stocks (100 mM) were stored at −20° C. in DMSO. Compounds were tested at different concentrations: from 200 μM to 91 nM.
Reactions were performed as duplicates in Black 384 well plates (small volume microplates; Greiner; 10 μl final reaction volume). The substrate concentration for UCH-L3 was 300 nM Ub-AMC (Boston Biochem). The concentration of the enzyme (UCH-L3) in specificity assays was 13 pM. The concentrations were determined in order to perform specificity assays under initial velocities at fixed substrate concentration. Compounds were pre-incubated with enzymes for 30 minutes at 25° C. Reactions were initiated by addition of substrate to the plates containing the enzymes (+/− compounds) diluted in assay buffer. Reactions were incubated for 60 minutes at 37° C. Reactions were stopped by adding acetic acid (100 mM final). Readings were performed on a Pherastar Fluorescent Reader (BMG). λ Emission 380 nm; λ Excitation=460 nm. Data (mean values +/− standard deviation) were analyzed as % of control (no compound) and plotted as percentage versus the Log of the compound concentration using GraphPad (Prism). Data were fitted to a sigmoidal model (variable slope).

IC50 (USP5) [µM]	IC50 (UCH-L3) [µM]	SMILES
> 200	> 200	CN1CCCC1CCNC(=O)c1ccc2c(Cl)c3c(nc2c1)CCCC3 (stereo not drawn) [Example 17, 9-chloro-N-(2-(1-methylpyrrolidin-2-yl)ethyl)-5,6,7,8-tetrahydroacridino-3-carboxamide]
> 200	> 200	O=C(NCc1cccc(CN2CCCC2)c1)c1ccc2c(Cl)c3c(nc2c1)CCCC3 [Example 18, 9-chloro-N-(3-(pyrrolidin-1-ylmethyl)benzyl)-5,6,7,8-tetrahydroacridine-3-carboxamide]
> 200	> 200	O=C(Nc1cccc(CN2CCCC2)c1)c1ccc2c(Cl)c3c(nc2c1)CCCC3 [Example 19, 9-chloro-N-(3-(pyrrolidin-1-ylmethyl)phenyl)-5.6,7,8-tetrahydroacridine-3-carboxamide]
> 200	> 200	CC1CCCCN1CCCNC(=O)c1ccc2c(Cl)c3c(nc2c1)CCCC3 (stereo not drawn) [Example 20, 9-chloro-N-(3-(2-methylpiperidin-1-yl)propyl)-516,7,8-tetrahydroacridine-3-carboxamide]
> 200	> 200	O=C(NCc1ccc(CN2CCCC2)cc1)c1ccc2c(Cl)c3c(nc2c1)CCCC3 [Example 21, 9-chloro-N-(4-(pyrrolidin-1-ylmethyl)benzyl)-5,6,7,8-tetrahydroacridine-3-carboxamide]
> 200	> 200	COc1ccc(CN2CCC(CNC(=O)c3ccc4c(Cl)c5c(nc4c3)CCCC5)CC2)cc1 [Example 22, 9-chloro-N-((1-(4-methoxybenzyl)piperidin-4-yl)methyl)-5,6,7,8-tetrahydroacridine-3-carboxamide]
> 200	> 200	CN(C)c1ccc(CN2CCC(CNC(=O)c3ccc4c(Cl)c5c(nc4c3)CCCC5)CC2)cc1 [Example 23]
> 200	> 200	O=C(NCC1CCNCC1)c1ccc2c(Cl)c3c(nc2c1)CCCC3 [Example 24, 9-chloro-N-((piperidin-4-yl)methyl)-5,6,7,8-tetrahydroacridine-3-carboxamide]
> 200	> 200	O=C(NCC(CN1CCCC1)C(O)c1ccccc1)c1ccc2c(Cl)c3c(nc2c1)CCCC3 (stereo not drawn) [Example 25, 9-chloro-N-(3-hydroxy-3-phenyl-2-pyrrolidin-1-ylmethylpropyl)-5,6,7,8-tetrahydroacridine-3-carboxamide]
